Results taken from paper PMC10450149, “Antennal transcriptome analysis of odorant-binding proteins and characterization of GOBP2 in the variegated cutworm Peridroma saucia” (Frontiers in Physiology, 2023).
Where “and” joins values, the source holds several entries; their conditions need not be identical. Identical values can stand only once.

Legend:
PsauGOBP1 = target: PsauGOBP1; set-up: method as in Sun et al., 2021; conditions: binding to PsauGOBP1; ref Sun et al., 2021; cited from earlier work
recombinant PsauGOBP2 [1] = experiment: Competitive fluorescence binding assay: displacement of 1-NPN from recombinant PsauGOBP2; set-up: species or system Peridroma saucia; conditions: means ± SE, n = 3; for IC50: PsauGOBP2 and 1-NPN, IC50 > 30 μM considered no binding affinity, read-out: IC50 (concentration of ligand halving the initial fluorescence value of 1-NPN); for Ki: Ki = [IC50]/(1 + [1-NPN]/K1-NPN), read-out: Ki (calculated dissociation constant)
Method: (§1) For the expression of recombinant PsauGOBP2, pET-30b containing the sequence encoding mature PsauGOBP2 was used to transform BL21 E. coli cells. Protein expression was induced by the addition of IPTG (final concentration 0.4 mM) when the OD600 value of cell culture reached about 0.8. Cells cultured for further 2–4 h at 37°C were harvested by centrifugation. PsauGOBP2 was present as inclusion bodies. 10 mL of 8 M urea and 1 mM DTT in Tris buffer (50 mM, pH 7.4) were then used to solubilise the inclusion body pellet (from 1 L of culture). The dissolved protein was dialyzed against 1 L of Tris buffer (50 mM, pH 7.4). The recombinant protein was purified on the anion exchange resins QFF, following standard protocols previously adopted for other moth OBPs ([Sun et al., 2012]; [Sun et al., 2021]).
Binding affinities of odorants to PsauGOBP2 were measured by competitive binding assays. A panel of 28 compounds (competitors) including the P. saucia female sex pheromone components Z11-16: Ac and Z9-14: Ac and 26 host plant volatiles were used in the assay. The CAS number, source, and purity of these compounds were listed in Supplementary Table S3. A solution of PsauGOBP2 and 1-NPN, both at the concentration of […], was titrated with 1 mM of each competitor (dissolved in methanol) at a final concentration of 10 µM (sex pheromones) or 20 µM (host plant volatiles). The dissociation constants (Ki) of competitors to PsauGOBP2 were calculated using the equation: Ki = [IC50]/(1 + [1-NPN]/K1-NPN), where [IC50] is the concentration of the competitor halving (50%) the initial fluorescence value (100%), [1-NPN] is the free concentration of 1-NPN, and K1-NPN is the dissociation constant of the protein-1-NPN complex.

recombinant PsauGOBP2 [2] = experiment: Fluorescence binding assay: titration of recombinant PsauGOBP2 with the fluorescent probe 1-NPN; set-up: species or system Peridroma saucia; conditions: 2 mM protein in 50 mM Tris-HCl pH 7.4, titrated with 1-NPN to 20 µM; excitation 337 nm; means +SE, n = 3; single binding site; read-out: K1-NPN (dissociation constant of 1-NPN to PsauGOBP2)
Method: as §1
The fluorescence binding assays were conducted on a Hitachi F-2710 with a 1 cm light path quartz cuvette. To measure the affinity of the fluorescent probe 1-NPN (N-phenyl-1-naphthylamine) to PsauGOBP2, a […] solution of the protein in 50 mM Tris-HCl, pH 7.4, was titrated with aliquots of 1 mM 1-NPN in methanol to a final concentration of 20 µM. The probe was excited at 337 nm, and emission spectra were recorded between 380 and 460 nm. The dissociation constant of 1-NPN (K1-NPN) to PsauGOBP2 was obtained by processing the data with GraphPad Prism 6.0.

[3] = remaining 1-NPN fluorescence at Max Conc 20 (20 µM, host plant volatiles)
[4] = remaining 1-NPN fluorescence at Max Conc 10 (10 µM, sex pheromones)

Structure (SMILES) | IC50 (recombinant PsauGOBP2 [1]) [µM] | Fluorescence at max (%) (recombinant PsauGOBP2 [1]; [3]) | Ki (recombinant PsauGOBP2 [1]) | Fluorescence at max (%) (recombinant PsauGOBP2 [1]; [4]) | Ki (PsauGOBP1) [µM] | Kd (recombinant PsauGOBP2 [2]) [µM]
c1ccc(Nc2cccc3ccccc23)cc1 [1-NPN, N-phenyl-1-naphthylamine] |  |  |  |  |  | 3.2 ± 0.19
CCC/C=C/C=O [(E)-2-Hexenal, (E)-2-hexenal] | > 30 | 77 ± 3 |  |  |  | 
C=C1CC/C=C(\C)CC[C@@H]2[C@@H]1CC2(C)C [(E)-Caryophyllene, (E)-caryophyllene] | > 30 | 90 ± 3 |  |  |  | 
O=Cc1ccccc1 [Benzaldehyde] | > 30 | 74 ± 3 |  |  | 9.4 | 
CCCCCCCCCC=O [Decanal] | > 30 | 73 ± 7 |  |  |  | 
CCCCCCCCCCCCO [Dodecanol] | 19.5 ± 0.6 | 49 ± 3 | 13 ± 0.4 µM |  |  | 
CCCCCCCO [Heptanol] | > 30 | 80 ± 2 |  |  |  | 
c1ccc2[nH]ccc2c1 [Indole] | > 30 | 100 ± 8 |  |  |  | 
CC/C=C\C[C@H]1C(=O)CC[C@@H]1CC(=O)O [Jasmonic acid] | > 30 | 73 ± 5 |  |  |  | 
CC/C=C\CC1C(=O)CCC1CC(=O)OC (centres unmarked) [Methyl jasmonate] | > 30 | 70 ± 7 |  |  |  | 
COC(=O)c1ccccc1O [Methyl salicylate] | > 30 | 79 ± 2 |  |  |  | 
CCCCCCCCC=O [Nonanal] | > 30 | 85 ± 2 |  |  | 6.8 | 
CCCCCCCC=O [Octanal] | > 30 | 75 ± 2 |  |  |  | 
CC(=O)OCCc1ccccc1 [Phenylethyl acetate] | 10.5 ± 0.5 | 39 ± 3 | 6.3 ± 0.3 µM |  |  | 
CCCC/C=C\CCCCCCCCCCOC(C)=O [Z11-16: Ac] | 6.5 ± 1.2 |  | 4.2 µM and < 5 µM | 41 ± 4 |  | 
C=C1CCC2CC1C2(C)C (stereo not drawn) [β-Pinene, β-pinene] | > 30 | 79 ± 9 |  |  |  | 

Further lines, with some results ahead:

IC50 (recombinant PsauGOBP2 [1]) [µM] | Fluorescence at max (%) (recombinant PsauGOBP2 [1]; [3]) | Ki (recombinant PsauGOBP2 [1]) | Fluorescence at max (%) (recombinant PsauGOBP2 [1]; [4]) | Structure (SMILES) | Ki (PsauGOBP1) [µM] | Kd (recombinant PsauGOBP2 [2]) [µM]
> 30 | 76 ± 5 |  |  | CC(C)=CCCC(C)=CC=O (mixture of isomers) [Citral] | 5.6 | 
> 30 | 69 ± 7 |  |  | CCC/C=C/CO [(E)-2-Hexen-1-ol, (E)-2-hexen-1-ol] |  | 
> 30 | 69 ± 3 |  |  | CCC/C=C/COC(C)=O [(E)-2-Hexenyl acetate, (E)-2-hexenyl acetate] |  | 
> 30 | 75 ± 7 |  |  | C=CC(=C)CC/C=C(\C)CCC=C(C)C [(E)-β-farnesene] |  | 
> 30 | 72 ± 3 |  |  | CC/C=C\CCO [(Z)-3-Hexen-1-ol, (Z)-3-hexen-1-ol] | 8.5 | 
> 30 | 86 ± 2 |  |  | CC/C=C\CCOC(C)=O [(Z)-3-Hexenyl acetate, (Z)-3-hexenyl acetate] | 4 | 
> 30 | 75 ± 3 |  |  | CC/C=C\CC1=C(C)CCC1=O [(Z)-jasmone] |  | 
> 30 | 85 ± 5 |  |  | C=C(C)[C@H]1CC=C(C)CC1 [D-Limonene] |  | 
> 30 | 100 ± 3 |  |  | CC(C)=CCC/C(C)=C/CC/C(C)=C/CO [Farnesol] | 6.4 | 
> 30 | 74 ± 6 |  |  | C=CC(C)(O)CCC=C(C)C (centres unmarked) [Linalool] |  | 
7.5 ± 0.9 |  | 4.9 µM and < 5 µM | 45 ± 3 | CCCC/C=C\CCCCCCCCOC(C)=O [Z9-14: Ac] |  | 
12 ± 0.5 | 45 ± 1.5 | 8 ± 0.3 µM |  | C=CC(=C)CCC=C(C)C [β-Myrcene, β-myrcene] |  | 
> 30 | 90 ± 4 |  |  | C=C/C(C)=C/CC=C(C)C [β-Ocimene, β-ocimene] |  | 
